Assay results as given in patent US9409922B2, “Imidazopyridine macrocycles as inhibitors of human immunodeficiency virus replication” (priority 2014, dated 2016).
Like-named read-outs stand apart in the source and are kept apart here.

Test system: NL-RLuc virus
Experiment: Inhibition of HIV replication: NL-RLuc reporter virus in MT-2 cells, luciferase readout
Type: cell-based
Details: MT-2 cells infected with NL-RLuc virus, 5 days of incubation, 10% FBS, at least 2 experiments
Text: Inhibition of HIV Replication:
A recombinant NL-RLuc proviral clone was constructed in which a section of the nef gene from NL4-3 was replaced with the Renilla Luciferase gene. This virus is fully infectious and can undergo multiple cycles of replication in cell culture. In addition, the luciferous reporter provides a simple and easy method for quantitating the extent of virus growth and consequently, the antiviral activity of test compounds. The plasmid pNLRLuc contains the proviral NL-Rluc DNA cloned into pUC 18 at the PvuII site. The NL-RLuc virus was prepared by transfection of 293T cells with the plasmid pNLRLuc. Transfections were performed using the LipofectAMINE PLUS kit from Invitrogen (Carlsbad, Calif.) according to the manufacturer and the virus generated was titered in MT-2 cells. For susceptibility analyses, the titrated virus was used to infect MT-2 cells in the presence of compound, and after 5 days of incubation, cells were processed and quantitated for virus growth by the amount of expressed luciferase. Assay media was RPMI 1640 supplemented with 10% heat inactivated fetal bovine serum (FBS), 100 units/ml penicillin G/100 units/ml streptomycin, 10 mM HEPES buffer pH 7.55 and 2 mM L-glutamine. The results from at least 2 experiments were used to calculate the EC50 values. Luciferase was quantitated using the Dual Luciferase kit from Promega (Madison, Wis.). Susceptibility of viruses to compounds was determined by incubation in the presence of serial dilutions of the compound. The 50% effective concentration (EC50) was calculated by using the exponential form of the median effect equation where (Fa)=1/[1+(ED50/drug conc.)^m](Johnson V A, Byington R T. Infectivity Assay. In Techniques in HIV Research. ed. Aldovini A, Walker B D. 71-76. New York: Stockton Press. 1990).

[1] = Human immunodeficiency virus 1, MT2, 120 h

Structure (SMILES) | EC50 [1] [nM] | EC50 (read-out: EC50) [nM]
Cc1cc2nc3cn2c(c1[C@H](OC(C)(C)C)C(=O)O)N1CCC(C)(CCCCCOc2ccccc2CNC3=O)CC1 [Example 1, (2S)-2-(tert-Butoxy)-2-{4,25-dimethyl-10-oxo-19-oxa-1,7,11,30-tetraazapentacyclo[23.2.2.1^6,^9.0^2,^7.0^13,^18]triaconta-2,4,6(30),8,13(18),14,16-heptaen-3-yl}acetic acid] | 71 | 
Cc1cc2nc3cn2c(c1[C@H](OC(C)(C)C)C(=O)O)N1CCC(C)(CCCCCCOc2ccc(F)cc2CNC3=O)CC1 [Example 2, (2S)-2-(tert-Butoxy)-2-{15-fluoro-4,26-dimethyl-10-oxo-19-oxa-1,7,11,31-tetraazapentacyclo[24.2.2.1^6,^9.0^2,^7.0^13,^18]hentriaconta-2,4,6(31),8,13(18),14,16-heptaen-3-yl}acetic acid] | 16 | 
Cc1cc2nc3cn2c(c1[C@H](OC(C)(C)C)C(=O)O)N1CCC(C)(CC1)OCCCCCOc1ccc(F)cc1CNC3=O [Example 3, (2S)-2-(tert-Butoxy)-2-{15-fluoro-4,26-dimethyl-10-oxo-19,25-dioxa-1,7,11,31-tetraazapentacyclo[24.2.2.1^6,^9.0^2,^7.0^13,^18]hentriaconta-2,4,6(31),8,13(18),14,16-heptaen-3-yl}acetic acid] | 27 | 
Cc1cc2nc3cn2c(c1[C@H](OC(C)(C)C)C(=O)O)N1CCC(C)(CC1)OCCCCCOc1ccccc1Cc1nnc-3o1 [Example 4, (2S)-2-(tert-Butoxy)-2-{4,28-dimethyl-21,27,33-trioxa-1,7,11,12,34-pentaazahexacyclo[26.2.2.1^6,^9.1^10,^13.0^2,^7.0^15,^20]tetratriaconta-2,4,6(34),8,10,12,15(20),16,18-nonaen-3-yl}acetic acid] | 10 | 
Cc1cc2nc3cn2c(c1[C@H](OC(C)(C)C)C(=O)O)N1CCC(C)(CC1)OCCCCCOc1ccc(F)cc1Cc1nc-3[nH]c1Cl [Example 5] | 7 | 
Cc1cc2nc3cn2c(c1[C@H](OC(C)(C)C)C(=O)O)N1CCC(C)(CC1)OC/C=C/C[C@H](C)Oc1cc(F)ccc1-c1cccc-3c1 [Example 6, (2S)-2-(tert-Butoxy)-2-[(22S)-18-fluoro-4,22,28-trimethyl-21,27-dioxa-1,7,34-triazahexacyclo[26.2.2.1^6,^9.1^10,^14.0^2,^7.0^15,^20]tetratriaconta-2,4,6(34),8,10(33),11,13,15(20),16,18,24-undecaen-3-yl]acetic acid] | 5 | 
Cc1cc2nc3cn2c(c1[C@H](OC(C)(C)C)C(=O)O)N1CCC(C)(CC1)OCCCC[C@H](C)Oc1cc(F)ccc1-c1cccc-3c1 [Example 7, (2S)-2-(tert-Butoxy)-2-[(22S)-4,17,22,28-tetramethyl-21,27-dioxa-1,7,34-triazahexacyclo[26.2.2.1^6,^9.1^10,^14.0^2,^7.0^15,^20]tetratriaconta-2,4,6(34),8,10(33),11,13,15(20),16,18-decaen-3-yl]acetic acid] | 5 | 
Cc1ccc2c(c1)-c1cccc(c1)-c1cn3c(c([C@H](OC(C)(C)C)C(=O)O)c(C)cc3n1)N1CCC(C)(CC1)OCCCC[C@H](C)O2 [Example 8, (2S)-2-(tert-Butoxy)-2-[(22S)-4,17,22,28-tetramethyl-21,27-dioxa-1,7,34-triazahexacyclo[26.2.2.1^6,^9.1^10,^14.0^2,^7.0^15,^20]tetratriaconta-2,4,6(34),8,10(33),11,13,15(20),16,18-decaen-3-yl]acetic acid] | 15 | 
Cc1ccc2c(c1)-c1cccc(c1)-c1cn3c(c([C@H](OC(C)(C)C)C(=O)O)c(C)cc3n1)N1CCC(C)(CC1)OC/C=C/C[C@H](C)O2 [Example 9, (2S)-2-(tert-Butoxy)-2-[(22S)-4,17,22,28-tetramethyl-21,27-dioxa-1,7,34-triazahexacyclo[26.2.2.1^6,^9.1^10,^14.0^2,^7.0^15,^20]tetratriaconta-2,4,6(34),8,10(33),11,13,15(20),16,18,24-undecaen-3-yl]acetic acid] | 9 | 
Cc1cc2nc3cn2c(c1[C@H](OC(C)(C)C)C(=O)O)N1CCC(C)(CC1)OCCCC[C@H](C)Oc1ccc(F)cc1-c1cccc-3c1 [Example 10, (2S)-2-(tert-Butoxy)-2-[(22S)-17-fluoro-4,22,28-trimethyl-21,27-dioxa-1,7,34-triazahexacyclo[26.2.2.1^6,^9.1^10,^14.0^2,^7.0^15,^20]tetratriaconta-2,4,6(34),8,10(33),11,13,15(20),16,18-decaen-3-yl]acetic acid] | 4 | 
Cc1cc2nc3cn2c(c1[C@H](OC(C)(C)C)C(=O)O)N1CCC(C)(CC1)OC/C=C/C[C@H](C)Oc1cc(F)c(F)cc1-c1cccc-3c1 [Example 11, (2S)-2-(tert-Butoxy)-2-[(22S)-17,18-difluoro-4,22,28-trimethyl-21,27-dioxa-1,7,34-triazahexacyclo[26.2.2.1^6,^9.1^10,^14.0^2,^7.0^15,^20]tetratriaconta-2,4,6(34),8,10(33),11,13,15(20),16,18,24-undecaen-3-yl]acetic acid] | 12 | 
Cc1cc2nc3cn2c(c1[C@H](OC(C)(C)C)C(=O)O)N1CCC(C)(CC1)OC/C=C\C[C@H](C)Oc1cc(F)c(F)cc1-c1cccc-3c1 [Example 12, (2S)-2-(tert-Butoxy)-2-[(22S)-17,18-difluoro-4,22,28-trimethyl-21,27-dioxa-1,7,34-triazahexacyclo[26.2.2.1^6,^9.1^10,^14.0^2,^7.0^15,^20]tetratriaconta-2,4,6(34),8,10(33),11,13,15(20),16,18,24-undecaen-3-yl]acetic acid] | 3 | 
Cc1cc2nc3cn2c(c1[C@H](OC(C)(C)C)C(=O)O)N1CCC(C)(CC1)OCCCC[C@H](C)Oc1cc(F)c(F)cc1-c1cccc-3c1 [Example 13, (2S)-2-(tert-Butoxy)-2-[(22S)-17,18-difluoro-4,22,28-trimethyl-21,27-dioxa-1,7,34-triazahexacyclo[26.2.2.1^6,^9.1^10,^14.0^2,^7.0^15,^20]tetratriaconta-2,4,6(34),8,10(33),11,13,15(20),16,18-decaen-3-yl]acetic acid] | 8 | 
Cc1cc2nc3cn2c(c1[C@H](OC(C)(C)C)C(=O)O)N1CCC(C)(CC1)OCC=CC[C@H](C)Oc1cc(F)cc(F)c1-c1cccc-3c1 [Example 14, (2S)-2-(tert-Butoxy)-2-[(22S)-16,18-difluoro-4,22,28-trimethyl-21,27-dioxa-1,7,34-triazahexacyclo[26.2.2.1^6,^9.1^10,^14.0^2,^7.0^15,^20]tetratriaconta-2,4,6(34),8,10(33),11,13,15(20),16,18,24-undecaen-3-yl]acetic acid] |  | 2
Cc1cc2nc3cn2c(c1[C@H](OC(C)(C)C)C(=O)O)N1CCC(C)(CC1)OCCCCC[C@H](C)Oc1cc(F)cc(F)c1-c1cccc-3c1 [Example 16, (2S)-2-(tert-Butoxy)-2-[(22S)-16,18-difluoro-4,22,28-trimethyl-21,27-dioxa-1,7,34-triazahexacyclo[26.2.2.1^6,^9.1^10,^14.0^2,^7.0^15,^20]tetratriaconta-2,4,6(34),8,10(33),11,13,15(20),16,18-decaen-3-yl]acetic acid] | 4 | 
Cc1cc2c(cc1C)-c1cccc(c1)-c1cn3c(c([C@H](OC(C)(C)C)C(=O)O)c(C)cc3n1)N1CCC(C)(CC1)OCC=CC[C@H](C)O2 [Example 17, (2S)-2-(tert-Butoxy)-2-[(22S)-4,17,18,22,28-pentamethyl-21,27-dioxa-1,7,34-triazahexacyclo[26.2.2.1^6,^9.1^10,^14.0^2,^7.0^15,^20]tetratriaconta-2,4,6(34),8,10(33),11,13,15(20),16,18,24-undecaen-3-yl]acetic acid] | 6 | 
Cc1cc2c(cc1C)-c1cccc(c1)-c1cn3c(c([C@H](OC(C)(C)C)C(=O)O)c(C)cc3n1)N1CCC(C)(CC1)OC/C=C\C[C@H](C)O2 [Example 18, (2S)-2-(tert-Butoxy)-2-[(22S)-4,17,18,22,28-pentamethyl-21,27-dioxa-1,7,34-triazahexacyclo[26.2.2.1^6,^9.1^10,^14.0^2,^7.0^15,^20]tetratriaconta-2,4,6(34),8,10(33),11,13,15(20),16,18,24-undecaen-3-yl]acetic acid] | 8 | 
Cc1cc2c(cc1C)-c1cccc(c1)-c1cn3c(c([C@H](OC(C)(C)C)C(=O)O)c(C)cc3n1)N1CCC(C)(CC1)OCCCC[C@H](C)O2 [Example 19, (2S)-2-(tert-Butoxy)-2-[(22S)-4,17,18,22,28-pentamethyl-21,27-dioxa-1,7,34-triazahexacyclo[26.2.2.1^6,^9.1^10,^14.0^2,^7.0^15,^20]tetratriaconta-2,4,6(34),8,10(33),11,13,15(20),16,18-decaen-3-yl]acetic acid] | 15 | 
Cc1cc2c(cc1F)-c1cccc(c1)-c1cn3c(c([C@H](OC(C)(C)C)C(=O)O)c(C)cc3n1)N1CCC(C)(CC1)OCCCC[C@H](C)O2 [Example 20, (2S)-2-(tert-Butoxy)-2-[(22S)-17-fluoro-4,18,22,28-tetramethyl-21,27-dioxa-1,7,34-triazahexacyclo[26.2.2.1^6,^9.1^10,^14.0^2,^7.0^15,^20]tetratriaconta-2,4,6(34),8,10(33),11,13,15(20),16,18-decaen-3-yl]acetic acid] | 11 | 
